In US11052028B2, “Process for depigmenting keratin materials using thiopyridinone compounds” (L'OREAL, priority 2010, dated 2021):
Entries after “also recorded” stand apart in the source; their conditions may differ.

How the values were obtained:
[1] = tested on: coculture of keratinocytes and melanocytes; experiment: Cytotoxicity on coculture, estimated by leucine incorporation; format: cell-based
Description: (§1) The modulatory effect of each compound on melanogenesis was measured according to the method described in FR-A-2734825 and also in the article by R. Schmidt, P. Krien and M. Regnier, Anal. Bichem., 235(2), 113-18,1996. This test is carried out on a coculture of keratinocytes and melanocytes.
(§2) For the compounds tested, the following were determined: • the cytotoxicity, by estimating leucine incorporation, • the inhibitory activity on melanin synthesis, by estimating the ratio of thiouracil incorporation to leucine incorporation, relative to 100% of the control (the control corresponds to the test carried out without test compound). The IC50 values (concentration for which 50% of the melanin synthesis is inhibited) were determined.
(§3) The test was also carried out with arbutin, niacinamide and kojic acid, which are known depigmenting compounds.

[2] = tested on: coculture of keratinocytes and melanocytes; experiment: Inhibitory activity on melanin synthesis (constitutive melanogenesis), ratio of thiouracil incorporation to leucine incorporation; format: cell-based; conditions: for efficacy in inhibiting melanogenesis compared with known depigmenting compounds: conclusion in words from the coculture test; for IC50: read-out: IC50 (concentration for which 50% of the melanin synthesis is inhibited)
Description: as §1, §2, §3

[3] = ratio of thiouracil to leucine incorporation, relative to 100% of the control, coculture of keratinocytes and melanocytes

Compound	Cytotoxicity on coculture [1]	efficacy in inhibiting melanogenesis compared with known depigmenting compounds [2]	IC50 [2, 3] [µM]	IC50 (concentration for which 50% of the melanin synthesis is inhibited) [2, 3]
O=C(NC1CCCCC1)c1ccc[nH]c1=S [Compound 12, N-cyclohexyl-2-thioxo-1,2-dihydropyridine-3-carboxamide]	Non-cytotoxic	more effective than arbutin, kojic acid and niacinamide	37	–
O=c1cc(CO)occ1O [Kojic acid, reference compound]	100 µM	–	> 500	–
COc1ccc(CCNC(=O)c2ccc[nH]c2=S)cc1 [Compound 16, N-[2-(4-methoxyphenyl)ethyl]-2-thioxo-1,2-dihydropyridine-3-carboxamide]	100 µM	more effective than arbutin, kojic acid and niacinamide	25	–
CCCCCNC(=O)c1ccc[nH]c1=S [Compound 7, N-pentyl-2-thioxo-1,2-dihydropyridine-3-carboxamide]	Non-cytotoxic	more effective than arbutin, kojic acid and niacinamide	32	–
CCN(CC)C(=O)c1ccc[nH]c1=S [Compound 27, N,N-diethyl 2-mercaptonicotinamide]	Non-cytotoxic	more effective than arbutin, kojic acid and niacinamide	29	–
O=C(NCC(O)CO)c1ccc[nH]c1=S (stereo not drawn) [Compound 21, N-(2,3-dihydroxypropyl)-2-thioxo-1,2-dihydropyridine-3-carboxamide]	Non-cytotoxic	more effective than arbutin, kojic acid and niacinamide	128	–
NC(=O)c1cccnc1 [Niacinamide, reference compound]	Non-cytotoxic	–	–	Not attained
CCNC(=O)c1ccc[nH]c1=S [Compound 2, N-ethyl-2-thioxo-1,2-dihydropyridine-3-carboxamide]	Non-cytotoxic	more effective than arbutin, kojic acid and niacinamide; also recorded: the most effective compound	4.9	–
O=C(NCCO)c1ccc[nH]c1=S [Compound 19, N-(2-hydroxyethyl)-2-thioxo-1,2-dihydropyridine-3-carboxamide]	Non-cytotoxic	more effective than arbutin, kojic acid and niacinamide	410	–
OC[C@H]1O[C@@H](Oc2ccc(O)cc2)[C@H](O)[C@@H](O)[C@@H]1O [Arbutin, reference compound]	Non-cytotoxic	–	> 500	–
